System: CFA-injected mice
Assay: Complete Freund's Adjuvant test (mechanical allodynia, thermal hyperalgesia)
Format: in vivo, mouse
Description: Mice were injected with 20 μl of CFA (0.5 mg/ml of heat killed Mycobacterium tuberculosis, Sigma) in the intraplantar region of the right hindpaw. Paw diameter and thermal hyperalgesia (see paw withdrawal test) were measured 3 days after CFA injection. In separate groups of mice that received CFA, mechanical allodynia thresholds were determined according to previously published method (Ondachi et. al. J Med Chem. 2014 Feb. 13; 57(3):836-48. doi: 10.1021/jm401602p). Mice were placed in a plexiglas cage with mesh metal flooring and allowed to acclimate for 30 min before testing. A series of calibrated von Frey filaments (Stoelting, Wood Dale, Ill.) with logarithmically incremental stiffness ranging from 2.83 to 5.88 expressed as log 10 of [10 £ force in (mg)] were applied to the paw with a modified up-down method. In the absence of a paw withdrawal response to the initially selected filament, a thicker filament corresponding to a stronger stimulus was presented. In the event of paw withdrawal, the next weaker stimulus was chosen. Each hair was presented perpendicularly against the paw, with sufficient force to cause slight bending, and held 2-3 s. The stimulation of the same intensity was applied 5 times to the hindpaw at intervals of a few seconds. Three or more responses out of five stimulations were coded as a positive response. Once a positive response was detected, sequentially lower weight filaments were used to assess the sensory threshold for each paw. The allodynia scores were recorded in a blinded fashion.
A similar sequence of drug treatment described for the formalin testing was used to test the antinociceptive effects of alpha-7 nAChRs ago-PAMs in the CFA model of inflammatory pain. […] Paw diameter and mechanical allodynia will be measured 3 days after CFA injection. We assessed the dose-response relationship of […]7 nAChRs ago-PAMs (4 doses) in reversing CFA-induced mechanical allodynia and paw edema.

NS(=O)(=O)c1ccc2c(c1)[C@H]1C=CC[C@H]1[C@@H](c1ccc(Br)cc1)N2 [Compound 1, (3aR,4S,9bS)-4-(4-bromophenyl)-3a,4,5,9b-tetrahydro-3H-cyclopenta[c]quinoline-8-sulfonamide]
antiallodynic and antihyperalgesic effects after MLA (data not shown): MLA blocked the effects | duration of antiallodynic effect (i.p., dose dependent): 180 min | duration of antihyperalgesic effect (mouse, in vivo): 60 min
